Results published in US8133294B2, “Buffered amino alcohol solutions of N-(n-butyl)thiophosphoric triamide (NBPT) and urea fertilizers using such solutions as urease inhibitors” (Whitehurst Associates, Inc., priority 2009, dated 2012).
Entries after “also recorded” stand apart in the source; their conditions may differ.

Legend:
[1] = Sulfide test: NBPT containing buffered mixture added to copper (II) containing ARBORITE Binder 75, colour change; assay type: physicochemical
Method: As another example of the instability of this formulation, the buffered NBPT containing mixture was added to ARBORITRE® Binder 75 which is an ethanolamine borate containing copper (II) ions at about 0.75%.
[…]; The NBPT containing buffered mixture was then added to ARBORITE® Binder 75.

[2] = Stability of NBPT in the buffered mixture on standing (yellowing, hydrogen sulfide odor as signs of decomposition); assay type: physicochemical
[3] = background description; cited from earlier work
[4] = Solubility limit of NBPT in buffered amino alcohol/carboxylic acid mixture; assay type: physicochemical; conditions: 12% NBPT in MEA/acetic acid buffered mixture, pH 9.2 (Example 3)

CCCCNP(N)(N)=S [NBPT, N-(n-butyl)-thiophosphoric triamide]
Colour change on addition to ARBORITE Binder 75 (sulfides of copper (II)) ([1]; 20% NBPT in TEA/acetic acid buffered mixture, pH 7.6 (Example 6)): lost its characteristic blue color and appeared green | Colour change on addition to ARBORITE Binder 75 (sulfides of copper (II)) ([1]; 25% NBPT in MIPA/acetic acid buffered mixture, pH 9.0 (Example 13)): No reaction characteristic of the formation of sulfide salts of copper (II) was observed | Colour change on addition to ARBORITE Binder 75 (sulfides of copper (II)) ([1]; NBPT in MEA/acetic acid buffered mixture, pH 7.0 (Example 1)): immediately turned brown | Decomposition of NBPT in the buffered mixture over time ([2]; 12% NBPT in MEA/acetic acid buffered mixture, pH 9.2 (Example 3)): no signs of yellowing were observed | Decomposition of NBPT in the buffered mixture over time ([2]; MEA/acetic acid buffered mixture, pH 7.0 (Examples 1 and 2)): turned yellow over time and emitted an odor of hydrogen sulfide; also recorded: caused hydrolysis of the NBPT and released sulfides | Decomposition of NBPT in the buffered mixture over time ([2]; TEA/acetic acid buffered mixture, pH 7.6 (Example 6)): displayed a tendency to yellow over time | Hydrolytic and thermal stability [3]: undergoes hydrolysis and is thermally unstable | Crystallization of the NBPT solution when chilled [4]: slight crystallization when chilled
